US8361970B2, “Growth factor binding molecules” (University of South Florida, priority 2000, dated 2013)

Legend:
[1] = target: EGF (epidermal growth factor) (Homo sapiens, UniProt P01133); experiment: Binding to EGF by gel electrophoresis
[2] = target: IGF-1 (insulin-like growth factor-1) (Homo sapiens, UniProt P05019); experiment: Binding to IGF-1 by gel electrophoresis
[3] = test system: Erk1/Erk2 activation in U87MG tumors; experiment: Phosphorylated/activated Erk1/Erk2 in U87MG tumors in vivo; set-up: species or system nude mice; conditions: day 32, 100 and 200 mg per kg
Procedure: U87MG cells (human glioblastoma) are harvested, resuspended in PBS and injected s.c. into the right and left flank (10×10^6 cells per flank) of 8 week old female nude mice (Charles River, Wilmington, Mass.). When tumors reached about 100 mm^3, animals are dosed i.p. with 0.2 ml once daily. Control animals received a saline vehicle whereas treated animals are injected with GFB-111 (50, 100 or 200 mg/kg/day). The tumor volumes are determined by measuring the length (l) and the width (w) and calculating the volume (V=lw^2/2) as described previously. For detection of phosphorylated/activated Erk1/Erk2 in tumors in vivo, the tumors are extracted 20 min after the last GFB-111 injection on day 32, rinsed and the tissue homogenized in HEPES lysis buffer (30 mM Hepes, pH 7.5, 1% T-X-100, 10% glycerol, 10 mM NaCl, 5 mM MgCl2, 25 mM NaF, 1 mM EGTA, 2 mM Na3VO4, 10 μg/ml trypsin inhibitor, 25 μg/ml leupeptin, 10 μg/ml aprotinin, 2 mM PMSF). The lysates (50-100 μg) are electrophoresed on a 15% SDS-PAGE, transferred to nitrocellulose membranes and immunoblotted, with anti-phospho-p44/p42 MAPK (Thy202/Tyr204).

[4] = test system: HRGβ-activation of Erk1/Erk2; experiment: HRGβ activation of Erk1/Erk2 in SkBr3 breast carcinoma cells overexpressing ErbB2; format: cell-based, human; conditions: concentrations as high as 100 μM
Procedure: In other experiments, starved NIH 3T3 cells (PDGF-AA, PDGF-BB, aFGF, bFGF), NIH 3T3 cells overexpressing EGFR. IGF-1R or Flk-1 and the human breast carcinoma SkBr3 that overexpresses ErbB2 (HRGβ) are pretreated with GFB-111 (100 μM) for 5 min before 10 min stimulation with the indicated growth factors at the concentrations shown above and aFGF (10 ng/ml), bFGF (50 ng/ml), IGF-1 (50 ng/ml) and HRGβ (10 ng/ml). Cell lysates are then immunoblotted with anti-phospho Erk1/Erk2 as described above.

[5] = test system: PDGF-BB stimulated DNA synthesis in NIH 3T3 cells; format: cell-based; conditions: 3 h
Procedure: (§1) Starved NIH 3T3 or NIH 3T3 overexpressing IGFR are treated for 16 hours with indicated concentrations of GFB-111 and either 10 ng/ml PDGF or 50 ng/ml IGF-1, respectively, then labeled for 2 hr (NIH 3T3) or 4 hr (IGFR) with ^3H-thymidine. Cells are then washed in PBS, lysed in 0.1N NaOH and spotted onto glass fiber filters. DNA is precipitated with ice cold ethanol then ^3H-thymidine incorporation quantified by scintillation counting.
(§2) The selectivity of PDGF-induced cellular responses, is evaluated by the selectivity of GFB-111 to inhibit growth factor-stimulated DNA synthesis using a [^3H]-thymidine incorporation assay. […] In contrast GFB-111 is ineffective at inhibiting IGF-1-stimulated DNA synthesis at concentrations as high as 100 μM (FIG. 4).

[6] = test system: EGF-stimulated EGFR tyrosine phosphorylation and Erk1/Erk2 activation; experiment: EGF-stimulated EGFR tyrosine phosphorylation and Erk1/Erk2 activation in NIH 3T3 cells overexpressing EGFR; format: cell-based; conditions: GFB-111 at concentrations as high as 100 μM
Procedure: Starved NIII 3T3 cells (PDGF-BB and PDGF-AA), NIH 3T3 cells overexpressing either EGFR (EGF) or Flk-1 (VEGF) are pre-treated with the indicated concentrations of GFB-111 for 5 minutes before 10 minutes of stimulation with PDGF-BB (10 ng/ml), PDGF-AA (10 ng/ml), EGF (100 ng/ml) and VEGF (50 ng/ml). Cell lysates are run on SDS-PAGE gels, then transferred to nitrocellulose and Western blotted with anti-phosphotyrosine (4G 10) or anti-phosphorylated Erk1/Erk2 (New England Biolabs).

[7] = test system: IGF-1-stimulated DNA synthesis; experiment: IGF-1-stimulated DNA synthesis ([3H]-thymidine incorporation) in NIH 3T3 overexpressing IGFR; format: cell-based; conditions: concentrations as high as 100 μM
Procedure: as §1, §2

[8] = test system: PDGF-stimulated PDGFR tyrosine phosphorylation; experiment: Inhibition of PDGF-stimulated PDGFR tyrosine phosphorylation in NIH 3T3 cells (anti-phosphotyrosine Western blot); format: cell-based; conditions: concentrations as high as 10 mM

Chain of EGF (epidermal growth factor) (P01133 971-1023 limits assumed, species assumed): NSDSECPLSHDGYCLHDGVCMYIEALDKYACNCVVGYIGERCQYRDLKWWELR
Chain of IGF-1 (insulin-like growth factor-1) (P05019 49-118 limits assumed, species assumed): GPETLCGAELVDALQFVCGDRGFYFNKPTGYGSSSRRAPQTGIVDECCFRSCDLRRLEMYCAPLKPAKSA

Compound | Binding to EGF [1] | Binding to IGF-1 [2] | Erk1/Erk2 activation in the tumors [3] | HRGβ-activation of Erk1/Erk2 [4] | IC50 [5] | Effect on EGF-stimulated EGFR tyrosine phosphorylation and Erk1/Erk2 activation [6] | Inhibition of IGF-1-stimulated DNA synthesis [7] | Inhibition of PDGF-stimulated PDGFR tyrosine phosphorylation [8]
CCCCOc1c2cc(C(=O)Nc3cc4cc(c3)C(=O)NCC(=O)N[C@@H](CC(=O)O)C(=O)NCC(=O)N[C@@H](Cc3ccc(O)cc3)C(=O)NC4)cc1Cc1cc(C(=O)Nc3cc4cc(c3)C(=O)NCC(=O)N[C@@H](CC(=O)O)C(=O)NCC(=O)N[C@@H](Cc3ccc(O)cc3)C(=O)NC4)cc(c1OCCCC)Cc1cc(C(=O)Nc3cc4cc(c3)C(=O)NCC(=O)N[C@@H](CC(=O)O)C(=O)NCC(=O)N[C@@H](Cc3ccc(O)cc3)C(=O)NC4)cc(c1OCCCC)Cc1cc(C(=O)Nc3cc4cc(c3)C(=O)NCC(=O)N[C@@H](CC(=O)O)C(=O)NCC(=O)N[C@@H](Cc3ccc(O)cc3)C(=O)NC4)cc(c1OCCCC)C2 [GFB-111] | does not bind | does not bind | blocked | minimally affected | 6.5 µM | does not affect | ineffective | –
GKGK [GFB-116] | – | – | – | – | – | – | – | does not inhibit
